Values of other authors as cited in patent US12378579B2, “Method to produce the anti-microbial diterpenoid leubethanol and related serrulatane-type diterpenes” (priority 2020, dated 2025).

Tested on: multi-drug-resistant tuberculosis
Details: pure compound from Leucophyllum frutescens; background statement

## CC(C)=CCC[C@H](C)[C@@H]1CC[C@@H](C)c2c(O)cc(C)cc21 [leubethanol]
  activity against multi-drug resistant tuberculosis: demonstrated activity
